Some test systems named below: UACC-62 melanoma; EKVX NSCLC; UACC-257 melanoma; HCC-2998 colon; OVCAR-8 ovarian; T-47D breast; HOP-62 NSCLC; SK-OV-3 ovarian; CCRF-CEM leukemia; SK-MEL-28 melanoma; SNB-19 CNS.
Test in all cases: growth of human tumour cells (NCI), 48 h

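A five-concentration, 48-hour dose response in 96-well plates underlies each endpoint, interpolated linearly between surrounding concentrations. The concentration for full growth arrest is given as TGI.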 Where a SMILES comes first, the peptide text is derived from it. The star is where a group is joined. Cbz = O=C(OCc1ccccc1)*

For the compound `CCCCCCCCCN1CCC(=O)C(C(=O)OC)C1` (configuration not stated), the TGI with UACC-62 melanoma worked out at 24.9 µM; with EKVX NSCLC, 34 µM; with UACC-257 melanoma it was 24.7 µM; in the assay on HCC-2998 colon, 33.8 µM; in the assay on OVCAR-8 ovarian, 21 µM; in the assay with T-47D breast, 28.3 µM. Moreover, the TGI was found to be 31.3 µM in the assay with HOP-62 NSCLC, 31.1 µM with SK-OV-3 ovarian and 31.2 µM in the assay with CCRF-CEM leukemia.

Turning to `CSc1c(C#N)c2n(c3ccccc3[n+]2C)c2ncccc12`, the TGI is 38.9 µM in the assay on UACC-62 melanoma; 50.5 µM in the assay with EKVX NSCLC; more than 100 µM in the assay on HCC-2998 colon; 73.4 µM in the assay on OVCAR-8 ovarian; 49.1 µM in the assay with SK-MEL-28 melanoma; more than 100 µM in the assay with SNB-19 CNS. Further, the TGI is 80 µM in the assay on T-47D breast, more than 100 µM with HOP-62 NSCLC, more than 100 µM in the assay with SK-OV-3 ovarian and more than 100 µM in the assay with CCRF-CEM leukemia.

For `CN(/N=C\c1ccc2ccccc2c1)C1=NCCCCN1`, the TGI in the assay with UACC-62 melanoma was 64.2 µM; with EKVX NSCLC it was more than 100 µM; in the assay with UACC-257 melanoma, 33.7 µM; in the assay with HCC-2998 colon it was 28.5 µM; in the assay with OVCAR-8 ovarian, more than 100 µM; in the assay on SK-MEL-28 melanoma, 31.1 µM. Also, the TGI with T-47D breast is more than 100 µM; in the assay with HOP-62 NSCLC, 90.7 µM; with SK-OV-3 ovarian, more than 100 µM; in the assay with CCRF-CEM leukemia it was 69.1 µM.

For `O=C1c2cc(CCl)sc2C(=O)c2ccsc21`, the TGI in the assay with UACC-62 melanoma was determined as 0.319 µM; with EKVX NSCLC, 2.74 µM; with UACC-257 melanoma it was 0.327 µM; in the assay on HCC-2998 colon it was 3.04 µM; with OVCAR-8 ovarian it was 0.674 µM; with SK-MEL-28 melanoma it was 0.149 µM. Besides, the TGI in the assay with SNB-19 CNS was 0.527 µM; in the assay on T-47D breast it was 0.562 µM; in the assay on SK-OV-3 ovarian it was 3.36 µM; in the assay with CCRF-CEM leukemia, 1.22 µM.

For the compound `CC(C)(C)C=C=C(C(C)(C)C)P(=O)(O)O`, the TGI in the assay with UACC-62 melanoma, in the assay on EKVX NSCLC, in the assay on UACC-257 melanoma, with HCC-2998 colon, in the assay on OVCAR-8 ovarian and in the assay with SK-MEL-28 melanoma was more than 100 µM each time. Moreover, the TGI with SNB-19 CNS, with T-47D breast, in the assay on HOP-62 NSCLC and in the assay with SK-OV-3 ovarian was more than 100 µM each time.

`COC/C=C\[C@@]1(O)CCCC[C@@H]1CC(OC)OC`: the TGI with EKVX NSCLC was more than 100 µM; with UACC-257 melanoma, more than 100 µM; with HCC-2998 colon it was more than 100 µM; with OVCAR-8 ovarian, more than 85.8 µM; in the assay with SK-MEL-28 melanoma, more than 80.6 µM; with SNB-19 CNS it was more than 100 µM. The TGI in the assay on T-47D breast was more than 100 µM; in the assay on HOP-62 NSCLC, more than 100 µM; in the assay on SK-OV-3 ovarian, more than 100 µM; in the assay on CCRF-CEM leukemia it was more than 64.3 µM.

Turning to `O=C(NCc1ccccc1)c1cnc(Cl)cn1`, the TGI with UACC-62 melanoma was more than 100 µM; in the assay on EKVX NSCLC, more than 100 µM; in the assay on UACC-257 melanoma, more than 100 µM; in the assay on HCC-2998 colon, 43.3 µM; in the assay on OVCAR-8 ovarian it was more than 100 µM; in the assay with SK-MEL-28 melanoma, more than 100 µM. The TGI is more than 100 µM in the assay with SNB-19 CNS, more than 100 µM with T-47D breast, more than 100 µM in the assay with SK-OV-3 ovarian and 62.6 µM in the assay on CCRF-CEM leukemia.

For `COC(=O)C1=C(O)C(C(=O)OC)[C@]2(O)[C@H](C(=O)OC)[C@H]1C[C@@H](c1ccc(OC)cc1)[C@H]2C(=O)OC` (some centres not stated), the TGI is 25.8 µM with UACC-62 melanoma; more than 100 µM in the assay with EKVX NSCLC; more than 100 µM in the assay on UACC-257 melanoma; 37.8 µM in the assay with HCC-2998 colon; more than 100 µM with OVCAR-8 ovarian; more than 100 µM in the assay with SK-MEL-28 melanoma. Further, the TGI is 79.8 µM in the assay on SNB-19 CNS, more than 100 µM with T-47D breast, 85.1 µM in the assay on HOP-62 NSCLC and 65.5 µM with SK-OV-3 ovarian.

In the case of `CCOC(=O)C(C)NC(=O)C(C)NC(=O)C(C)NC(=O)C(C)NC(=O)C(C)NC(=O)C(C)NC(=O)C(C)NC(=O)OCc1ccccc1` (configuration not stated) (Cbz-AAAAAAA-OEt; configuration not given here), the TGI in the assay with UACC-62 melanoma, in the assay with EKVX NSCLC, in the assay on HCC-2998 colon, in the assay with OVCAR-8 ovarian, in the assay with SK-MEL-28 melanoma and in the assay on SNB-19 CNS was more than 100 µM each time. In addition, the TGI in the assay on T-47D breast, in the assay on HOP-62 NSCLC and with SK-OV-3 ovarian was more than 100 µM throughout.

For the compound `S=C1C=C(c2ccccc2)Sc2ccccc2N1`, the TGI in the assay on UACC-62 melanoma, in the assay on EKVX NSCLC, with UACC-257 melanoma, in the assay with OVCAR-8 ovarian, with SK-MEL-28 melanoma and in the assay on SNB-19 CNS was more than 100 µM each time. The TGI with T-47D breast, with HOP-62 NSCLC, with SK-OV-3 ovarian and in the assay with CCRF-CEM leukemia was more than 100 µM in each case.

`C[C@@H]1CCC2[C@@H](C)C(=O)O[C@@H]3C4C[C@@H]1[C@@]23OO[C@@]4(C)O` (some centres not stated): the TGI with UACC-62 melanoma, with EKVX NSCLC, in the assay with UACC-257 melanoma, in the assay on HCC-2998 colon, in the assay on OVCAR-8 ovarian and in the assay with SK-MEL-28 melanoma was more than 100 µM each time. For the same compound, the TGI in the assay on SNB-19 CNS, in the assay on T-47D breast, with HOP-62 NSCLC and with CCRF-CEM leukemia was more than 100 µM each time.

`C[C@@H]1C(O)CC[C@H](C)C12CC=CC2=O` (some centres not stated): the TGI in the assay on UACC-62 melanoma, with EKVX NSCLC, in the assay on UACC-257 melanoma, in the assay on HCC-2998 colon, with SK-MEL-28 melanoma and in the assay on SNB-19 CNS was more than 100 µM each time. Besides, the TGI in the assay on T-47D breast, with HOP-62 NSCLC and in the assay on SK-OV-3 ovarian was more than 100 µM in each case.

`c1ccc(-c2cc(-c3cc(-c4ccccc4)n(-c4ccccc4)n3)nn2-c2ccccc2)cc1`: the TGI in the assay with UACC-62 melanoma, with EKVX NSCLC, in the assay with UACC-257 melanoma, with HCC-2998 colon, with OVCAR-8 ovarian and with SNB-19 CNS was more than 100 µM each time. In addition, the TGI in the assay with T-47D breast, in the assay on HOP-62 NSCLC, with SK-OV-3 ovarian and in the assay on CCRF-CEM leukemia was more than 100 µM throughout.

These data come from PubChem BioAssay (NCI).
